US4361515A, “Antihyperlipemic dihydro-ML-236B derivatives, their preparation and use” (Sankyo Company, Limited, priority 1980, dated 1982)

Columns and labels:
[1] = Toxicity in mice, intraperitoneal administration; details: mouse, in vivo, ip, read-out: dose at which mice survive
[2] = system: synthesis of cholesterol in a rat liver; assay: Inhibitory activity against the biosynthesis of cholesterol in a rat liver; assay type: biochemical
Procedure: 10. Inhibitory activity against the biosynthesis of cholesterol: a 50% inhibition of the synthesis of cholesterol in a rat liver is observed at a concentration of 0.04 μg/ml.

[3] = Solubility in organic solvents; assay type: physicochemical

| SMILES | MTD [1] | concentration at which a 50% inhibition of the synthesis of cholesterol is observed [2] | Solubility ([3]; benzene) | Solubility ([3]; hexane and petroleum ether) | Solubility ([3]; methanol, ethanol, acetone, ethyl acetate, chloroform and carbon tetrachloride) |
| --- | --- | --- | --- | --- | --- |
| CCC(C)C(=O)OC1CCC(O)C2=CC(O)C(C)C(CCC3CC(O)CC(=O)O3)C21 (centres unmarked) [3',5'-dihydroxy-(DH.ML-236B), 3',5'-Dihydroxy-(DH.ML-236B)] | ≤ 1 mg/kg | – | – | – | – |
| CC1C=C2C=CC(C)C(CCC3CC(O)CC(=O)O3)C2C(O)C1 (centres unmarked) [MB-530A] | – | 0.04 µg/mL | soluble | insoluble | readily soluble |
